Source: the supplement of paper PMC8920030

Tests used:
Details in all cases: growth mode: biofilm, 24 h; exposure time: 24 h
tobramycin [1] = compound: T1, NC[C@H]1O[C@H](O[C@H]2[C@H](O)[C@@H](O[C@H]3O[C@H](CO)[C@@H](O)[C@H](N)[C@H]3O)[C@H](N)C[C@@H]2N)[C@H](N)C[C@@H]1O [tobramycin]; assay: minimum concentration of killing, 1-log CFU reduction of biofilm (MCK90); higher = more biofilm tolerance
Procedure: (§1)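 Clinical P. aeruginosa isolates were grown as static biofilms for 24 h at 37 °C in LB in half-area 96-well plates, then exposed for 24 h to tobramycin at 1, 4, 16, 64, 256 or […]. Surviving CFU were counted by spotting serial dilutions. MCK is the lowest tested concentration giving the stated log reduction in CFU versus an untreated control; '>1024' means the reduction was not reached at the top dose, and 1 is the lowest dose tested (≤1).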

colistin [2] = compound: T2, CCC(C)CCCC(=O)N[C@@H](CCN)C(=O)N[C@H](C(=O)N[C@@H](CCN)C(=O)N[C@H]1CCNC(=O)[C@H]([C@@H](C)O)NC(=O)[C@H](CCN)NC(=O)[C@H](CCN)NC(=O)[C@H](CC(C)C)NC(=O)[C@@H](CC(C)C)NC(=O)[C@H](CCN)NC1=O)[C@@H](C)O [colistin]; assay: minimum concentration eradicating biofilm below detection limit (MCK-E); higher = more biofilm tolerance
Procedure: as §1, with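 “colistin” for “tobramycin”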

colistin [3] = compound: T2, colistin; assay: minimum concentration of killing, 2-log CFU reduction of biofilm (MCK99); higher = more biofilm tolerance
Procedure: as §1, with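 “colistin” for “tobramycin”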

colistin [4] = compound: T2, colistin; assay: minimum concentration of killing, 4-log CFU reduction of biofilm (MCK99.99); higher = more biofilm tolerance
Procedure: as §1, with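 “colistin” for “tobramycin”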

colistin [5] = compound: T2, colistin; assay: minimum concentration of killing, 1-log CFU reduction of biofilm (MCK90); higher = more biofilm tolerance
Procedure: as §1, with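 “colistin” for “tobramycin”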

tobramycin [6] = compound: T1, tobramycin; assay: minimum concentration eradicating biofilm below detection limit (MCK-E); higher = more biofilm tolerance
Procedure: as §1

tobramycin [7] = compound: T1, tobramycin; assay: minimum concentration of killing, 2-log CFU reduction of biofilm (MCK99); higher = more biofilm tolerance
Procedure: as §1

tobramycin [8] = compound: T1, tobramycin; assay: minimum concentration of killing, 4-log CFU reduction of biofilm (MCK99.99); higher = more biofilm tolerance
Procedure: as §1

“Pseudomonas aeruginosa clinical isolate ESP032” was tested, and the “minimum concentration of killing” value (tobramycin [1]) was 256 µg/mL, the “minimum concentration eradicating biofilm below detection limit” value (colistin [2]) was 256 µg/mL and the “minimum concentration of killing” value (colistin [3]) was 256 µg/mL. The “minimum concentration of killing” value (colistin [4]) was 256 µg/mL, the “minimum concentration of killing” value (colistin [5]) was 256 µg/mL and the “minimum concentration eradicating biofilm below detection limit” value (tobramycin [6]) was > 1020 µg/mL. The “minimum concentration of killing” value (tobramycin [7]) was 256 µg/mL and the “minimum concentration of killing” value (tobramycin [8]) was 1020 µg/mL.
In the case of “Pseudomonas aeruginosa clinical isolate ESP033”, the “minimum concentration of killing” value (tobramycin [1]) is reported as 16 µg/mL, the “minimum concentration eradicating biofilm below detection limit” value (colistin [2]) is reported as 256 µg/mL and the “minimum concentration of killing” value (colistin [3]) is reported as 256 µg/mL. The “minimum concentration of killing” value (colistin [4]) was 256 µg/mL, the “minimum concentration of killing” value (colistin [5]) was 256 µg/mL and the “minimum concentration eradicating biofilm below detection limit” value (tobramycin [6]) was 256 µg/mL. For the same test system, the “minimum concentration of killing” value (tobramycin [7]) was 64 µg/mL and the “minimum concentration of killing” value (tobramycin [8]) was 64 µg/mL.
With “Pseudomonas aeruginosa clinical isolate ESP034” the “minimum concentration of killing” value (tobramycin [1]) was 4 µg/mL, the “minimum concentration eradicating biofilm below detection limit” value (colistin [2]) was 256 µg/mL and the “minimum concentration of killing” value (colistin [3]) was 256 µg/mL. The “minimum concentration of killing” value (colistin [4]) was 256 µg/mL, the “minimum concentration of killing” value (colistin [5]) was 256 µg/mL and the “minimum concentration eradicating biofilm below detection limit” value (tobramycin [6]) was 1020 µg/mL. For the same test system, the “minimum concentration of killing” value (tobramycin [7]) was 16 µg/mL and the “minimum concentration of killing” value (tobramycin [8]) was 1020 µg/mL.
For “Pseudomonas aeruginosa clinical isolate ESP035”, the “minimum concentration of killing” value (tobramycin [1]) was 256 µg/mL, the “minimum concentration eradicating biofilm below detection limit” value (colistin [2]) was 256 µg/mL and the “minimum concentration of killing” value (colistin [3]) was 256 µg/mL. The “minimum concentration of killing” value (colistin [4]) was 256 µg/mL, the “minimum concentration of killing” value (colistin [5]) was 64 µg/mL and the “minimum concentration eradicating biofilm below detection limit” value (tobramycin [6]) was 1020 µg/mL. For the same test system, the “minimum concentration of killing” value (tobramycin [7]) was 256 µg/mL and the “minimum concentration of killing” value (tobramycin [8]) was 256 µg/mL.
In the case of “Pseudomonas aeruginosa clinical isolate ESP036”, the “minimum concentration of killing” value (tobramycin [1]) is reported as ≤ 1 µg/mL, the “minimum concentration eradicating biofilm below detection limit” value (colistin [2]) is reported as 256 µg/mL and the “minimum concentration of killing” value (colistin [3]) is reported as 256 µg/mL. The “minimum concentration of killing” value (colistin [4]) was 256 µg/mL, the “minimum concentration of killing” value (colistin [5]) was 256 µg/mL and the “minimum concentration eradicating biofilm below detection limit” value (tobramycin [6]) was 64 µg/mL. For the same test system, the “minimum concentration of killing” value (tobramycin [7]) was 4 µg/mL and the “minimum concentration of killing” value (tobramycin [8]) was 16 µg/mL.
“Pseudomonas aeruginosa clinical isolate ESP037” was tested, and the “minimum concentration of killing” value (tobramycin [1]) was 4 µg/mL, the “minimum concentration eradicating biofilm below detection limit” value (colistin [2]) was 64 µg/mL and the “minimum concentration of killing” value (colistin [3]) was 64 µg/mL. For the same test system, the “minimum concentration of killing” value (colistin [4]) was 64 µg/mL, the “minimum concentration of killing” value (colistin [5]) was 64 µg/mL and the “minimum concentration eradicating biofilm below detection limit” value (tobramycin [6]) was 256 µg/mL. The “minimum concentration of killing” value (tobramycin [7]) was 4 µg/mL and the “minimum concentration of killing” value (tobramycin [8]) was 64 µg/mL.
“Pseudomonas aeruginosa clinical isolate ESP038” was tested, and the “minimum concentration of killing” value (tobramycin [1]) was ≤ 1 µg/mL, the “minimum concentration eradicating biofilm below detection limit” value (colistin [2]) was 256 µg/mL and the “minimum concentration of killing” value (colistin [3]) was 64 µg/mL. The “minimum concentration of killing” value (colistin [4]) was 256 µg/mL, the “minimum concentration of killing” value (colistin [5]) was 64 µg/mL and the “minimum concentration eradicating biofilm below detection limit” value (tobramycin [6]) was 64 µg/mL. For the same test system, the “minimum concentration of killing” value (tobramycin [7]) was 4 µg/mL and the “minimum concentration of killing” value (tobramycin [8]) was 4 µg/mL.
In the case of “Pseudomonas aeruginosa clinical isolate ESP039”, the “minimum concentration of killing” value (tobramycin [1]) is reported as 4 µg/mL, the “minimum concentration eradicating biofilm below detection limit” value (colistin [2]) is reported as 64 µg/mL and the “minimum concentration of killing” value (colistin [3]) is reported as 64 µg/mL. For the same test system, the “minimum concentration of killing” value (colistin [4]) was 64 µg/mL, the “minimum concentration of killing” value (colistin [5]) was 64 µg/mL and the “minimum concentration eradicating biofilm below detection limit” value (tobramycin [6]) was 256 µg/mL. For the same test system, the “minimum concentration of killing” value (tobramycin [7]) was 16 µg/mL and the “minimum concentration of killing” value (tobramycin [8]) was 64 µg/mL.
“Pseudomonas aeruginosa clinical isolate ESP040” was tested, and the “minimum concentration of killing” value (tobramycin [1]) was 4 µg/mL, the “minimum concentration eradicating biofilm below detection limit” value (colistin [2]) was 64 µg/mL and the “minimum concentration of killing” value (colistin [3]) was 64 µg/mL. For the same test system, the “minimum concentration of killing” value (colistin [4]) was 64 µg/mL, the “minimum concentration of killing” value (colistin [5]) was 64 µg/mL and the “minimum concentration eradicating biofilm below detection limit” value (tobramycin [6]) was 64 µg/mL. For the same test system, the “minimum concentration of killing” value (tobramycin [7]) was 16 µg/mL and the “minimum concentration of killing” value (tobramycin [8]) was 64 µg/mL.
“Pseudomonas aeruginosa clinical isolate ESP044” was tested, and the “minimum concentration of killing” value (tobramycin [1]) was 4 µg/mL, the “minimum concentration eradicating biofilm below detection limit” value (colistin [2]) was 256 µg/mL and the “minimum concentration of killing” value (colistin [3]) was 64 µg/mL. The “minimum concentration of killing” value (colistin [4]) was 256 µg/mL, the “minimum concentration of killing” value (colistin [5]) was 64 µg/mL and the “minimum concentration eradicating biofilm below detection limit” value (tobramycin [6]) was 256 µg/mL. For the same test system, the “minimum concentration of killing” value (tobramycin [7]) was 64 µg/mL and the “minimum concentration of killing” value (tobramycin [8]) was 256 µg/mL.
With “Pseudomonas aeruginosa clinical isolate ESP046” the “minimum concentration of killing” value (tobramycin [1]) was 16 µg/mL, the “minimum concentration eradicating biofilm below detection limit” value (colistin [2]) was 256 µg/mL and the “minimum concentration of killing” value (colistin [3]) was 256 µg/mL. The “minimum concentration of killing” value (colistin [4]) was 256 µg/mL, the “minimum concentration of killing” value (colistin [5]) was 256 µg/mL and the “minimum concentration eradicating biofilm below detection limit” value (tobramycin [6]) was 1020 µg/mL. The “minimum concentration of killing” value (tobramycin [7]) was 1020 µg/mL and the “minimum concentration of killing” value (tobramycin [8]) was 1020 µg/mL.
In the case of “Pseudomonas aeruginosa clinical isolate ESP050”, the “minimum concentration of killing” value (tobramycin [1]) is reported as 64 µg/mL, the “minimum concentration eradicating biofilm below detection limit” value (colistin [2]) is reported as 256 µg/mL and the “minimum concentration of killing” value (colistin [3]) is reported as 256 µg/mL. For the same test system, the “minimum concentration of killing” value (colistin [4]) was 256 µg/mL, the “minimum concentration of killing” value (colistin [5]) was 64 µg/mL and the “minimum concentration eradicating biofilm below detection limit” value (tobramycin [6]) was 1020 µg/mL. For the same test system, the “minimum concentration of killing” value (tobramycin [7]) was 1020 µg/mL and the “minimum concentration of killing” value (tobramycin [8]) was 1020 µg/mL.
“Pseudomonas aeruginosa clinical isolate ESP054” was tested, and the “minimum concentration of killing” value (tobramycin [1]) was 4 µg/mL, the “minimum concentration eradicating biofilm below detection limit” value (colistin [2]) was 256 µg/mL and the “minimum concentration of killing” value (colistin [3]) was 256 µg/mL. For the same test system, the “minimum concentration of killing” value (colistin [4]) was 256 µg/mL, the “minimum concentration of killing” value (colistin [5]) was 64 µg/mL and the “minimum concentration eradicating biofilm below detection limit” value (tobramycin [6]) was 256 µg/mL. The “minimum concentration of killing” value (tobramycin [7]) was 4 µg/mL and the “minimum concentration of killing” value (tobramycin [8]) was 256 µg/mL.
For “Pseudomonas aeruginosa clinical isolate ESP055”, the “minimum concentration of killing” value (tobramycin [1]) was ≤ 1 µg/mL, the “minimum concentration eradicating biofilm below detection limit” value (colistin [2]) was 256 µg/mL and the “minimum concentration of killing” value (colistin [3]) was 256 µg/mL. The “minimum concentration of killing” value (colistin [4]) was 256 µg/mL, the “minimum concentration of killing” value (colistin [5]) was 64 µg/mL and the “minimum concentration eradicating biofilm below detection limit” value (tobramycin [6]) was 64 µg/mL. The “minimum concentration of killing” value (tobramycin [7]) was 16 µg/mL and the “minimum concentration of killing” value (tobramycin [8]) was 16 µg/mL.
With “Pseudomonas aeruginosa clinical isolate ESP058” the “minimum concentration of killing” value (tobramycin [1]) was 4 µg/mL, the “minimum concentration eradicating biofilm below detection limit” value (colistin [2]) was 256 µg/mL and the “minimum concentration of killing” value (colistin [3]) was 256 µg/mL. For the same test system, the “minimum concentration of killing” value (colistin [4]) was 256 µg/mL, the “minimum concentration of killing” value (colistin [5]) was 256 µg/mL and the “minimum concentration eradicating biofilm below detection limit” value (tobramycin [6]) was 64 µg/mL. For the same test system, the “minimum concentration of killing” value (tobramycin [7]) was 16 µg/mL and the “minimum concentration of killing” value (tobramycin [8]) was 64 µg/mL.
“Pseudomonas aeruginosa clinical isolate ESP059” was tested, and the “minimum concentration of killing” value (tobramycin [1]) was ≤ 1 µg/mL, the “minimum concentration eradicating biofilm below detection limit” value (colistin [2]) was 256 µg/mL and the “minimum concentration of killing” value (colistin [3]) was 256 µg/mL. The “minimum concentration of killing” value (colistin [4]) was 256 µg/mL, the “minimum concentration of killing” value (colistin [5]) was 64 µg/mL and the “minimum concentration eradicating biofilm below detection limit” value (tobramycin [6]) was 256 µg/mL. The “minimum concentration of killing” value (tobramycin [7]) was 4 µg/mL and the “minimum concentration of killing” value (tobramycin [8]) was 256 µg/mL.
“Pseudomonas aeruginosa clinical isolate ESP060” was tested, and the “minimum concentration of killing” value (tobramycin [1]) was > 1020 µg/mL, the “minimum concentration eradicating biofilm below detection limit” value (colistin [2]) was 1020 µg/mL and the “minimum concentration of killing” value (colistin [3]) was 256 µg/mL. The “minimum concentration of killing” value (colistin [4]) was 1020 µg/mL, the “minimum concentration of killing” value (colistin [5]) was 256 µg/mL and the “minimum concentration eradicating biofilm below detection limit” value (tobramycin [6]) was > 1020 µg/mL. The “minimum concentration of killing” value (tobramycin [7]) was > 1020 µg/mL and the “minimum concentration of killing” value (tobramycin [8]) was > 1020 µg/mL.
“Pseudomonas aeruginosa clinical isolate ESP063” was tested, and the “minimum concentration of killing” value (tobramycin [1]) was 256 µg/mL, the “minimum concentration eradicating biofilm below detection limit” value (colistin [2]) was 256 µg/mL and the “minimum concentration of killing” value (colistin [3]) was 16 µg/mL. For the same test system, the “minimum concentration of killing” value (colistin [4]) was 256 µg/mL, the “minimum concentration of killing” value (colistin [5]) was ≤ 1 µg/mL and the “minimum concentration eradicating biofilm below detection limit” value (tobramycin [6]) was > 1020 µg/mL. The “minimum concentration of killing” value (tobramycin [7]) was 1020 µg/mL and the “minimum concentration of killing” value (tobramycin [8]) was > 1020 µg/mL.
